US5856189A, “Cell culture model for drug bioavailability” (priority 1997, dated 1999)

Key:
[1] = tested on: Caco-2 cells; test: Apical/basolateral distribution of midazolam and metabolite across Caco-2 monolayers; settings: every time point, also after basolateral MDZ
Text: At the end of this period, the medium was replaced with medium not containing vitamin D (except that contributed by the 5% FBS).

[2] = biological target: CYP3A (Caco-2 cells) (Homo sapiens, UniProt P08684); settings: serum-free; 4 μM MDZ apical, 6.5 h; FIG. 9
Procedure: Standards were also prepared in duplicate. Known amounts of MDZ and 1'-OH-MDZ (1-50 ng) were combined with 100 mM potassium phosphate buffer, pH 7.4.
Unknowns and standards were extracted with 5 mL ethyl acetate and the upper organic layer transferred to clean tubes. The solvent was evaporated to dryness under a stream of nitrogen. The remaining solvent was reconstituted in 100 μL derivatizing reagent (10% N-methyl-N-(t-butyldimethylsilyl)trifluoroacetamide in acetonitrile).
At the end of this period, the medium was replaced with medium not containing vitamin D (except that contributed by the 5% FBS). Next, 4 μM MDZ was added to the apical (luminal) or basolateral (serosal) medium of the cells.
Parent drug and metabolite concentrations measured at 1 and 2 hours after MDZ administration were used for computation. The amount of 1'-OH-MDZ formed during this interval was determined as the sum of metabolite in the apical and basolateral compartments at 2 hours minus the total amount measured at 1 hour.
Because the incubation medium contained significant amounts of FBS, the fraction of MDZ bound to culture medium proteins was measured by equilibrium dialysis. […] The unbound concentration of MDZ in the apical and basolateral compartments during cell culture was calculated as the product of the experimentally determined MDZ-free fraction and total MDZ concentration. Since MDZ concentrations in the apical and basolateral compartments were not at equilibrium during the 1-2 hour MDZ incubation interval, the intracellular reaction was assumed to be driven by a MDZ concentration that was more closely aligned with the concentration in the basolateral compartment.
At the end of this period, the medium was replaced with medium containing neither serum nor vitamin D. Next, MDZ (4 μM) was added to the apical compartment.

[3] = tested on: Caco-2 cells; test: Glucuronidation of 1'-OH-MDZ in Caco-2 cells; settings: 2-24 h with 4 μM MDZ; β-glucuronidase
Procedure: The experiments of this example assess whether glucuronidation occurs in the culture system of the present invention. […] Each of a complete set of parallel 0.5 mL samples was diluted to a volume of 1 mL and spiked with 20 ng 1'-[^2 H2 ],1'-OH-MDZ (no glucuronidase treatment).

[4] = tested on: CYP3A7 mRNA (Caco-2 cells); test: RT-PCR of CYP3A7 mRNA in treated Caco-2 cells; settings: 0.05-1.0 μM, two weeks
Procedure: (§1) cDNA was prepared from the total RNA using reverse transcriptase from avian myeloblastosis virus (Seikagaku America). […] The polymerase chain reaction was performed on 1 μL of a 1:10 dilution in water of a prepared cDNA.
(§2) Each thermal cycle consisted of 95° C. for 1 min, then 65° C. for 1 min 15 sec; after completing all cycles, a 10 min extension step at 65° C. was performed.
(§3) PCR products were electrophoresed on agarose gels and stained with ethidium bromide. […] PCR products were judged to be of the size appropriate for amplification of the specific cDNA by comparison with molecular weight standards included on each gel.
(§4) The numbers of PCR cycles were as follows: CYP3A4, 36; CYP3A5, 33; CYP3A7, 39; mdr-1, 34; IFABP, 32; and villin, 27.

[5] = tested on: CYP2D6; settings: two weeks treatment, varying concentrations
Text: (§5) The homogenates were electrophoresed in polyacrylamide gels containing 0.1% SDS, and the separated proteins were electrophoretically transferred to nitrocellulose. Nonspecific binding sites were blocked using 0.3% Tween 20 and 5% nonfat dry milk (Carnation) in Tris buffered saline.
CYP2D6 was detected using a polyclonal rabbit antibody developed against unique antigenic peptides and was obtained from Dr. Alastair Cribb (Merck Research Laboratories, West Point, Pa.).
(§6) Secondary antibodies of appropriate specificities conjugated with horseradish peroxidase were obtained commercially (rabbit anti-mouse IgG and goat anti-rabbit IgG/A/M from Zymed and mouse anti-goat IgG/A/M from Pierce). Binding of secondary antibodies was detected using the enhanced chemiluminescence (ECL™) reagents and film from Amersham.

[6] = tested on: P-glycoprotein; test: Immunoblot of P-glycoprotein in Caco-2 cells; type: cell-based, human
Text: as §5
(§7) P-glycoprotein was detected using a polyclonal rabbit antibody (Oncogene Science), and villin was detected using a mouse monoclonal antibody (Chemicon International).
as §6
(§8) Cell homogenates were then prepared as described above and immunoblots were performed; the Caco-2 protein loads were as follows: 10 ,μg for CYP3A, CYP3A5, P-glycoprotein, villin; 25 pg for CYP1A1, CYP2D6; 40 μg for IFABP, LFABP; 80 μg for NADPH cytochrome P450 reductase, cytochrome b5 (the villin, IFABP, and LFABP served as control proteins).

[7] = tested on: CYP1A1; test: Immunoblot of CYP1A1 protein in Caco-2 cells; type: cell-based, human; settings: two weeks treatment, varying concentrations
[8] = tested on: CYP3A (Caco-2 cells)
Procedure: At the end of that period, the medium was replaced with medium not containing vitamin D (except that contributed by the 5% FBS). […] After 6 hours, the apical and basolateral media were removed separately and analyzed for 1'-OH-MDZ concentration.
As previously indicated, the medium was aspirated and the inserts were washed three times with Hanks'BSS. […] After 6 hours, the amount of 1'-OH-MDZ was measured in the combined luminal plus basolateral medium from each culture and the rate of formation calculated.
For the experiments of this example, all cells (Caco-2 cell clones and the parent cell line) were grown on Matrigel-coated teflon culture inserts. […] At the end of this period, the medium was replaced with medium not containing vitamin D (except that contributed by the 5% FBS). Next, MDZ (4 μM) was added to the apical compartment. […] Catalytic activity and levels of protein expression were determined as previously described.
Catalytic activity and levels of protein expression were determined as previously described.

[9] = tested on: CYP3A (Caco-2 cells); test: Immunoblot of CYP3A immunoreactive protein in treated Caco-2 cells; settings: for CYP3A4 expression at the highest concentrations used: FIGS. 2C and 3
Procedure: The medium was aspirated and the inserts were washed three times with Hanks' BSS containing 15 mM HEPES. Cells grown on Matrigel- (or Growth Factor Reduced Matrigel-) coated inserts were removed from the membranes using Dispase according to the manufacturer's protocol. Thereafter, 5 mM EDTA in normal saline containing 1 mM PMSF and 1 mM benzamidine was added to inhibit further digestion. The cell suspension was transferred to a microcentrifuge tube and pelleted by centrifugation at 325 g. The pellets were washed three times with Hanks' BSS containing 15 mM HEPES, 1 mM PMSF, and 1 mM benzamidine. The final pellet was resuspended in a solution of 20% v/v glycerol, 100 mM Tris HCl (pH 7.4), 10 mM EDTA, 1 mM dithiothreitol, I mM PMSF, 1 mM benzamidine, and 100 μg/mL aprotinin and homogenized in a conical ground glass tissue grinder with 20 passes of a ground glass pestle. The homogenate was subjected to 10 seconds of sonication and was then kept at -80° C. until analysis.
Cells grown on uncoated inserts or inserts coated with non-Matrigel matrices were harvested by scraping into Hanks' BSS containing HEPES and protease inhibitors, washed three times, and then homogenized, sonicated, and frozen as described above.
as §5
CYP1A1 was detected using a polyclonal goat antibody (Gentest) developed against rat CYP1A1 and CYP1A2. […] CYP3A proteins were detected using a mouse monoclonal antibody ("13-7-10") obtained from Dr. Pierre Kremers (Universite de Liege, Liege, Belgium). […] This antibody detects all known forms of human CYP3A.
as §6
In some cases, immunoblot protein concentrations were determined by computer-aided densitometry. When this procedure was conducted, optical densities were performed on a Macintosh (Apple) computer using the publicly available NIH Image program (developed at the U.S. National Institutes of Health and available on the Internet at http://rsb.info.nih.gov/nih-image/). Individual exposures were scanned into binary images with a ScanJetIIc color scanner (Hewlett-Packard). An optical density-concentration standard curve was prepared using the bands from second loaded serial dilutions of purified CYP3A4 protein, and the optical densities of unknowns were converted to quantitative numbers by comparison to this curve. This allowed for correction of the nonlinearity of ECL light output and ECL Hyperfilm.

[10] = tested on: villin; test: Immunoblot of villin in Caco-2 cells; type: cell-based, human; settings: for villin expression at the highest concentrations used: FIG. 3
Text: as §5, §7, §6, §8

[11] = tested on: NADPH cytochrome P450 reductase; test: Immunoblot of NADPH cytochrome P450 reductase in Caco-2 cells; settings: for concentrations at which NADPH cytochrome P450 reductase level increased: two weeks treatment
Text: as §5, §6, §8
(§9) At that time, the medium was replaced with medium without vitamin D (except that contributed by the 5% FBS. Total RNA was then prepared as described above and subjected to RT-PCR using synthetic oligonucleotide primer pairs designed to selectively amplify fragments of the CYP3A4 and villin cDNAs (see Table 3). The numbers of PCR cycles were as follows: CYP3A4, 36; and villin, 27. Moreover, immunoblots were performed as described above for CYP3A, NADPH cytochrome P450 reductase, P-glycoprotein, and villin. The protein loads used for the immunoblot procedures were as follows: 5 μg for CYP3A, P-glycoprotein, villin; and 40 ,μg for NADPH cytochrome P450 reductase.

[12] = tested on: CYP3A4 mRNA (Caco-2 cells)
Procedure: Harvesting for mRNA Analyses and RNA Isolation
The medium was aspirated and the culture inserts were washed three times with Hanks' BSS containing 15 mM HEPES. […] After 5 minutes, the cell lysate was transferred to a microcentrifuge tube and kept at -80° C. pending further processing. At a later time, the lysate was thawed quickly at 65° C., and total RNA was isolated according to the protocol of P. Chomczynski and N. Sacchi. Briefly, extraction was performed using the denaturing solution, 2M sodium acetate (pH 4), phenol, and chloroform (1:0.1:1:0.2). Next, precipitation was effected with 2 volumes of ethanol. Resolubilization and reprecipitation was then performed using the denaturing solution and 2 volumes of ethanol. […] The reagent volumes were adjusted proportionately as appropriate for the initial lysate volume.
as §1
Each thermal cycle consisted of 95° C. for 1 min, then 65° C. for 1 min 15 sec; after completing all cycles, a 10 min extension step at 65° C. was performed. The number of cycles performed in each PCR reaction is set forth below in the Examples.
as §3
An internal standard for quantitative competitive PCR of CYP3A4 cDNA was prepared by inserting a 30 base pair segment into the cDNA sequence to be amplified. PCR reaction mixtures were prepared by combining serial dilutions of a known amount of the standard cDNA and constant amounts of the unknown cDNA. The two cDNAs were amplified together and the products were separated on agarose gels. After staining with ethidium bromide, the two bands were quantitated densitometrically. An equivalence point (at which the densities of the standard and unknown bands are of equal optical density) was determined; the concentration of the unknown is equal to that of the standard at the point of equivalence.
The cells from all experiments were maintained in their respective differentiation media for two weeks post-confluence. Thereafter, the cells were used for midazolam metabolism studies and/or harvested for analysis of protein or mRNA (described below).
as §4, §9

[13] = tested on: CYP3A5; test: Immunoblot of CYP3A5 protein in Caco-2 cells; type: cell-based, human; settings: two weeks treatment, varying concentrations
Procedure: CYP3A5 was detected using an immunoadsorbed polyclonal rabbit antibody obtained from Dr. Steven A. Wrighton (Eli Lilly). The antibody may be generated by injecting rabbits subcutaneously with 100 μg of P450IIIA5 in 0.75 mL of phosphate-buffered saline in an emulsion made with 1.25 mL of Freund's complete adjuvant. Four weeks later, 50 μg of P450IIIA5 (in the same preparation) is injected. Finally, eight weeks from the initial injection, 50 μg of […] in 300 μL of phosphate-buffered saline is injected intravenously into the rabbits' ear vein. Serum was obtained 10 weeks following the initial immunization and weekly thereafter. The IgG fraction was then isolated and antibodies specific to CYP3A5 were isolated by adsorption of contaminating antibodies to sepharose-bound CYP3A4 [S. A. Wrighton et al., Mol. Pharmacol. 38:207-213 (1990).

[14] = tested on: CYP3A3 mRNA (Caco-2 cells); test: RT-PCR of CYP3A3 mRNA in treated Caco-2 cells; type: cell-based, human; settings: treated or untreated Caco-2 cells
Text: Primer sequences for amplification of CYP3A3, CYP3A4, CYP3A5, and
These are the same primer sequences previously used by J. C. Kolars et al. [Pharmacogenetics 4:247-259 (1994)], except that a different antisense primer (SEQ ID NO:9) was used for CYP3A5, and the first sense primer for CYP3A3 was paired with the second antisense primer used by Kolars et al. (i.e., in the present invention, SEQ ID NO:1 was paired with SEQ ID NO:2).

[15] = tested on: CYP3A5 mRNA (Caco-2 cells); test: RT-PCR of CYP3A5 mRNA in treated Caco-2 cells; settings: 0.05-1.0 μM, two weeks
Procedure: as §1, §2, §3, §4

[16] = tested on: LFABP; test: Immunoblot of LFABP in Caco-2 cells; type: cell-based, human; settings: two weeks treatment, varying concentrations
Text: as §5, §7, §6, §8

[17] = tested on: IFABP; test: Immunoblot of IFABP in Caco-2 cells; type: cell-based, human; settings: two weeks treatment, varying concentrations
Text: as §5, §7, §6, §8

[18] = tested on: cytochrome b5; test: Immunoblot of cytochrome b5 in Caco-2 cells; type: cell-based, human; settings: two weeks treatment, varying concentrations
Text: as §5, §6, §8

[19] = tested on: Caco-2 cells; settings: cited from earlier work
[20] = two weeks treatment from confluence, 4 μM MDZ apical, 6 h, FIG. 2A

CYP3A (Caco-2 cells) (Homo sapiens, UniProt P08684), sequence (P08684 2-503): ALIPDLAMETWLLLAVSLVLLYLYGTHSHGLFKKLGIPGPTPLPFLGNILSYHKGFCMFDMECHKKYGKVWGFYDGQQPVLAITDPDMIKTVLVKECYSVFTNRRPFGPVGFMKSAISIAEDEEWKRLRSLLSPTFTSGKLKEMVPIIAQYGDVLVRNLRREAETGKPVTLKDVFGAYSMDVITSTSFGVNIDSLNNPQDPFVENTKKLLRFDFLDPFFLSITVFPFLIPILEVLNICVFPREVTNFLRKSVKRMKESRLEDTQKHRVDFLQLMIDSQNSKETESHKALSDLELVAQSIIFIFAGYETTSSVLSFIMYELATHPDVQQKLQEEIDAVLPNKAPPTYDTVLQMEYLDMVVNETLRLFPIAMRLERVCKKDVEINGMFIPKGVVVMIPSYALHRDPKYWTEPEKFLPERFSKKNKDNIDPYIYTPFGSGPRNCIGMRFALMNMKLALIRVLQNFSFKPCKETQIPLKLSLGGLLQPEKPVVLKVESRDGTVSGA

OCc1ncc2n1-c1ccc(Cl)cc1C(c1ccccc1F)=NC2 [1'-OH-MDZ, 1'-hydroxymidazolam]
1'-OH-MDZ concentration, apical vs basolateral [1]: greater in the apical medium than in the basolateral medium | rate of 1'-OH-MDZ formation under serum-free incubation [2]: decreased compared to that measured in the presence of serum | rate of 1'-OH-MDZ formation, luminal vs basolateral medium [2]: greater in the luminal medium than in the basolateral medium | glucuronidation of 1'-OH-MDZ [3]: had not occurred

C=C1/C(=C\C=C2/CCC[C@]3(C)[C@@H]([C@H](C)CCCC(C)(C)O)CC[C@@H]23)C[C@@H](O)C[C@@H]1O [1α,25-(OH)2 -D3, 1α,25-dihydroxyvitamin D3]
CYP3A7 mRNA expression [4]: appeared to increase in response to 1α,25-(OH)2 -D3, but to a much lesser degree | level of CYP2D6 protein [5]: did not appear to change | exposure time until P-glycoprotein increased ([6]; 0.25 μM, FIG. 5A): about 72 hours | level of CYP1A1 protein [7]: did not appear to change | CYP3A catalytic activity, clones and parent line ([8]; 0.25 μM two weeks, clones 4-8 and parent, untreated below limits of quantitation): demonstrably greater catalytic activity than the untreated cells | exposure time until midazolam metabolism first detectable ([8]; 0.25 μM, 4 μM MDZ apical, 6 h, FIG. 5B): 12 h | difference in CYP3A catalytic activity among culture media ([8]; 5% FBS media with 0.25 μM 1α,25-(OH)2 -D3): less than 4 fold | CYP3A protein and catalytic activity without Matrigel ([8]; M-, D+, 0.25 μM): increased CYP3A protein and catalytic activity in the absence of Matrigel | extent of midazolam metabolism ([8]; apical concentrations, FIG. 2A): dramatic increase in the extent of midazolam metabolism | correlation (R) of midazolam 1'-hydroxylation activity with CYP3A immunoreactive protein ([8]; clones and parent with and without treatment, p=0.0003): 0.987 | concentration at which increase in CYP3A catalytic activity was evident / began [8, 20]: 50 nM | CYP3A immunoreactive protein, clones and parent line ([9]; 0.25 μM two weeks, all five clones and parent): increased levels of CYP3A immunoreactive protein | exposure time until increased CYP3A protein was evident ([9]; 0.25 μM, FIG. 5A): 18 h | CYP3A content by densitometry ([9]; 0.5 μM, untreated 7.9): 20.6 pmol CYP3A/mg of total protein | CYP3A expression in response to 1α,25-(OH)2 -D3 on Matrigel ([9]; M+, D+, 0.25 μM): clearly enhanced when the Caco-2 cells were grown on Matrigel | CYP3A4 expression at the highest concentrations used [9]: lower levels of expression | concentration at which increase in CYP3A immunoreactive protein was evident / began ([9]; two weeks treatment, FIG. 2C): 50 nM | villin expression at the highest concentrations used [10]: lower levels of expression | NADPH cytochrome P450 reductase expression among clones and parent line ([11]; 0.25 μM two weeks): variable responsiveness | exposure time until NADPH cytochrome P450 reductase increased ([11]; 0.25 μM, FIG. 5A): 168 h | concentrations at which NADPH cytochrome P450 reductase level increased [11]: ≥ 50 nM | exposure time at which CYP3A4 mRNA appeared to plateau ([12]; 0.25 μM, FIG. 5A): 120 h | exposure time until increase in CYP3A4 mRNA was evident ([12]; 0.25 μM, FIG. 5A): 3 to 4 h | CYP3A4 mRNA expression, dose-response ([12]; 0.05-1.00 μM, two weeks from confluence): increased CYP3A4 mRNA expression at all concentrations used | expression of CYP3A4 mRNA ([12]; added to differentiation medium (0.63 μM), two weeks post-confluence, Matrigel-coated Millicell CM inserts): dramatic increase in the expression of CYP3A4 mRNA | level of CYP3A5 protein [13]: little change | CYP3A3 mRNA [14]: not detected | CYP3A5 mRNA expression [15]: appeared to increase in response to 1α,25-(OH)2 -D3, but to a much lesser degree | level of LFABP protein [16]: Neither of the FABPs showed changes in levels of expression

C=C1CC[C@H](O)C/C1=C/C=C1\CCC[C@]2(C)[C@@H]([C@H](C)CCCC(C)(C)O)CC[C@@H]12 [25-(OH)-D3, 25-hydroxyvitamin D3]
level of CYP2D6 protein [5]: did not appear to change | concentrations at which immunoreactive P-glycoprotein increased ([6]; two weeks treatment): ≥ 2.5 µM | level of CYP1A1 protein [7]: did not appear to change | CYP3A catalytic activity at 15 μM ([8]; 15 μM, relative to maximum at 5 μM, FIG. 2B): substantially declined | CYP3A catalytic activity at 20 μM ([8]; 20 μM, FIG. 2B): declining still further | maximal CYP3A catalytic activity achieved ([8]; relative to 1α,25-(OH)2 -D3): not as great as that achieved with 1α,25-(OH)2 -D3 | concentration at which increase in CYP3A catalytic activity was evident / began [8, 20]: 250 nM | concentration at which CYP3A catalytic activity plateaued ([8]; two weeks treatment from confluence, FIG. 2A): > 1000 nM | concentration of maximal CYP3A catalytic activity ([8]; two weeks treatment, FIG. 2B): 5000 nM | CYP3A4 expression at the highest concentrations used [9]: lower levels of expression | concentration at which CYP3A immunoreactive protein plateaued ([9]; two weeks treatment, FIG. 2C): > 1000 nM | concentration at which increase in CYP3A immunoreactive protein was evident / began ([9]; two weeks treatment, FIG. 2C): 250 nM | level of villin immunoreactive protein ([10]; concentrations ≥10 μM, two weeks, not shown): decrease slightly | villin expression at the highest concentrations used [10]: lower levels of expression | concentrations at which NADPH cytochrome P450 reductase level increased [11]: ≥ 500 nM | level of IFABP protein [17]: Neither of the FABPs showed changes in levels of expression | level of CYP3A5 protein [13]: little change | level of LFABP protein [16]: Neither of the FABPs showed changes in levels of expression | level of cytochrome b5 immunoreactive protein [18]: did not appear to change

C=C1CC[C@H](O)C/C1=C/C=C1\CCC[C@]2(C)[C@@H]([C@H](C)CCCC(C)C)CC[C@@H]12 [D3, cholecalciferol]
Caco-2 cell growth ([19]; Giuliano et al.): decrease in cell growth | Caco-2 cell proliferation ([19]; Halline et al.): dose-dependent inhibition of cell proliferation | effect on midazolam metabolism ([8]; up to 1.0 μM, two weeks): no effect | effect on immunoreactive CYP3A protein ([9]; up to 1.0 μM, two weeks): no effect

CC(=O)OC/C=C(C)/C=C/C=C(C)/C=C/C1=C(C)CCCC1(C)C [Vitamin A, retinol acetate]
enhancement of CYP3A4 mRNA expression [12]: did not appear to enhance CYP3A4 mRNA expression

NCC(=O)CCC(=O)O [delta-aminolevulinic acid]
enhancement of CYP3A4 mRNA expression [12]: did not appear to enhance CYP3A4 mRNA expression

CCCC(=O)[O-].[Na+] [sodium butyrate]
enhancement of CYP3A4 mRNA expression [12]: did not appear to enhance CYP3A4 mRNA expression

C=C1CC[C@H](O)C/C1=C/C=C1\CCC[C@]2(C)[C@@H]([C@H](C)/C=C/[C@H](C)C(C)C)CC[C@@H]12 [vitamin D2, ergocalciferol]
enhancement of CYP3A4 mRNA expression [12]: did not appear to enhance CYP3A4 mRNA expression

CC1(S(=O)(=O)O)CC(=O)c2ccccc2C1=O (stereo not shown) [vitamin K, menadione sodium bisulfite]
enhancement of CYP3A4 mRNA expression [12]: did not appear to enhance CYP3A4 mRNA expression
